In patent publication US20260258500A1, “BIOMARKER FOR METASTATIC BLADDER CANCER” (DONG-A UNIVERSITY RESEARCH FOUNDATION FOR INDUSTRY-ACADEMY …, priority 2022, published 2026):

Legend:
Type in all cases: cell-based, human
[1] = test system: 5637 parental cell line (P0); experiment: MTT cell viability after gemcitabine treatment, parental cell line; details: C of FIG. 1
Experimental: (§1) For cell proliferation analysis, 1×10^3 cells were seeded in a 96-well plate and cultured for 24 hours. Thereafter, the cells were treated with 1 μM GEM for 0, 24, 48, and 72 hours, and cell viability was measured at each time point. The cells were then treated with thiazolyl blue tetrazolium bromide (MTT) (Sigma-Aldrich, St. Louis, MO, USA) and reacted for 1 hour. After the reaction was completed, the medium containing MTT was fully removed, and MTT formazan was dissolved using dimethyl sulfoxide (DMSO, Duchefa Biochemie, BH Haarlem, Netherlands). Thereafter, the absorbance was measured at 540 nm using a spectrophotometer microplate reader (Victor 3).

[2] = test system: GRCB cell lines (gemcitabine-resistant 5637); experiment: MTT cell viability / IC50 for gemcitabine, GRCB cell lines
Experimental: (§2) To analyze stepwise molecular mechanisms occurring during a process of anticancer drug resistance in bladder cancer patients, bladder cancer cell lines having resistance to gemcitabine (GEM) as a representative anticancer drug for bladder cancer were constructed. Specifically, five candidate groups A to E of the 5637 cell line were treated with 5 μM GEM (Eli Lilly and company, IN, USA) and cultured for 3 days. Thereafter, the residual cells were washed with phosphate-buffered saline (PBS) and replaced with a new medium. The process was repeated until the cells recovered to 90% confluency, and after each stage was completed, several cell stocks in the same state were stored in liquid nitrogen. Thereafter, the recovered cells were inoculated in a plate and additionally treated with GEM. A total of 15-phase GEM-resistant bladder cancer cell lines were constructed using the method, which were named GRCA, GRCB, GRCC, GRCD, and GRCE according to each group.
as §1

[3] = test system: GRCA cell lines (gemcitabine-resistant 5637); experiment: MTT cell viability / IC50 for gemcitabine, GRCA cell lines
Experimental: as §2, §1

[4] = P15 cell line, compared to other candidate groups, C of FIG. 1

Nc1ccn([C@@H]2O[C@H](CO)[C@@H](O)C2(F)F)c(=O)n1 [GEM, gemcitabine]
Resistance to GEM (cell viability) [1]: sensitive
IC50 values for GEM ([2]; P0, P3, P7, P15 cell lines, B of FIG. 2): increased in a phase-dependent manner
Resistance to GEM (cell viability) [2, 4]: significantly highly resistant
Resistance to GEM across stages ([2]; stages P0, P2, P3, P5, P7, P10, P15, E of FIG. 1): increased in a phase-dependent manner
IC50 values for GEM ([3]; P0, P3, P7, P15 cell lines, A of FIG. 2): increased in a phase-dependent manner
Resistance to GEM (cell viability) [3, 4]: significantly highly resistant
Resistance to GEM across stages ([3]; stages P0, P2, P3, P5, P7, P10, P15, D of FIG. 1): increased in a phase-dependent manner
